Consider two compounds from US20240316069A1, “METHODS OF TREATING MULTIPLE SCLEROSIS” (ASCENTAGE PHARMA (SUZHOU) CO., LTD., priority 2020, published 2024).

The conditions of series [1]: clinical application; cited from earlier work.
The subject of series [2] is MOG35-55 induced experimental autoimmune encephalomyelitis (EAE) model in C57BL/6 mice. In words: Histopathologic assessment of spinal cord, LFB staining (demyelination) in EAE model. Type of series: in vivo. The following applies: for LFB staining score: day 21, spinal cord, scoring 0 to 4. Here is the method:
(§1) The mice were anesthetized with isoflurane and immunized with 300 μg MOG 35-55 peptide emulsified (1:1) in […] Freund's adjuvant with 600 μg Mycobacterium tuberculosis. Each mouse received 0.05 ml emulsion (s.c.) at four sites (back shoulder and tail root). The mice were further intraperitoneally injected with 250 μL pertussis toxin (1 μg/mL) at 0 h and 48 h post immunization. The day when MOG 35-55 peptide was injected was set as day 1.
(§2) Mice in Group 1 were treated with vehicle for 20 days (po, qd, from day 1-20). Mice in Group 2, Group 3 and Group 4 were treated with 100 mg/kg Compound 4 for 20 days (po, qd, from day 1-20), 14 days (po, qd, from day 7-20) and 7 days (po, qd, from day 14-20) respectively. FTY720 was used as positive control which was orally administered to mice in Group 5 for 20 days (qd, from day 1-20). The protocols and procedures involving the care and use of animals were approved by the Institutional Animal Care and Use Committee (IACUC) at Bioduro (Shanghai, China). The information of each group is as follows.
(§3) At the end of the study (day 21), all the animals were sacrificed by CO2, and the spinal cords were collected and fixed in 10% formalin for pathological analysis (H&E and LFB staining). The histopathological score was evaluated microscopically in a blinded manner.
The structure and morphology of spinal cord was evaluated by LFB staining using a scoring system from 0 to 4: 0 represents for no demyelination; 1, a small range of demyelination; 2, 2-3 small range of demyelination; 3, 1-2 large range of demyelination; 4, large-scale demyelination involves more than 20% of white matter areas.

The test system is the same in series [3]. Briefly: Histopathologic assessment of spinal cord, H&E staining (inflammation) in EAE model. The following applies: for H&E staining score: day 21, spinal cord, scoring 0 to 4. Type of series: in vivo. As for the experimental part:
as §1, §2, §3
The inflammation of spinal cord was evaluated by H&E staining using a scoring system from 0 to 4: 0, no inflammatory cell infiltration; 1, inflammatory cell infiltration is limited to perivascular and […]; 2, small amount of inflammatory cell infiltration in the spinal cord; 3, medium number of inflammatory cell infiltration in the spinal cord; 4, large number of inflammatory cell infiltration in the spinal cord.

Series [4] has the same test system. Briefly: Clinical scores in MOG35-55 induced EAE model. Type of series: in vivo.
Series [5] deals with peripheral blood mononuclear cell (PBMC). In words: Flow cytometry of PBMC lymphocyte subtypes in EAE model. The format is in vivo, C57BL/6 mice. The following applies: 100 mg/kg; day 21. In general terms: A flow cytometer gives signals particle by particle.
The mark [6] stands for this setting: 100 mg/kg po qd, 7 days (d14-d20).
Where [7] appears, read: 100 mg/kg po qd, 14 days (d7-d20).
[8] abbreviates: 100 mg/kg po qd, 20 days (d1-d20).

Molecules are shown by their SMILES. Entries after “also recorded” stand apart in the source; their conditions may differ.

On to `CCCCCCCCc1ccc(CCC(N)(CO)CO)cc1.Cl` [FTY720, reference compound], for which, in series [1], the cardiovascular toxicity entry was “obvious cardiovascular toxicity”. In series [2] (1 mpk po qd x 20 d (d1-d20)), this compound came in with an LFB staining score of 0. In addition, in series [3] (1 mpk po qd x 20 d (d1-d20)), the “H&E staining score” value was determined as 0. For the same compound, the “symptoms of multiple sclerosis (clinical score, result in words)” value in series [4] (1 mpk po qd x 20 d (d1-d20), Group 5, entire experiment) is listed as “no mice developing symptoms of multiple sclerosis”.

With `O=C(NS(=O)(=O)c1ccc(NC[C@H]2COCCO2)c([N+](=O)[O-])c1)c1ccc(N2CCN(CC3=C(c4ccc(Cl)cc4)CC4(CCC4)CC3)CC2)cc1Oc1cnc2[nH]ccc2c1` [Compound 4, (S)-N-((4-(((1,4-dioxan-2-yl)methyl)amino)-3-nitrophenyl)sulfonyl)-2-((1H-pyrrolo[2,3-b]pyridin-5-yl)oxy)-4-(4-((6-(4-chlorophenyl)spiro[3.5]non-6-en-7-yl)methyl)piperazin-1-yl)benzamide], in series [5], the “number of B lymphocytes (CD45+CD3-B220+) in the PBMC” value is “significantly reduced”, the “number of CD4+ T lymphocytes (CD45+CD3+CD4+) in the PBMC” value is listed as “significantly reduced”, the “number of CD8+ T lymphocytes (CD45+CD3+CD8+) in the PBMC” value is on record as “significantly reduced” and the “number of T lymphocytes (CD45+CD3+) in the PBMC” value is on record as “significantly reduced”. For the same compound, in series [5], the “number of double negative T lymphocytes (CD45+CD3+CD4-CD8−) in the PBMC” value is listed as “significantly reduced” and the “number of leukocytes (CD45+) in the PBMC” value is listed as “significantly reduced”. The same compound had an LFB staining score in series [2] (setting [6]) of 1.30±0.37. Also, the LFB staining score in series [2] (setting [7]) was 1.33±0.44. This compound also gave an LFB staining score in series [2] (setting [8]) of 1.80±0.29. For the same compound, the “LFB staining scores (result in words)” value in series [2] (FIG. 2 legend, regimen not stated) is listed as “reduced the LFB staining scores”. Further, the “H&E staining score” value in series [3] (setting [6]) was found to be 2.10±0.41. In addition, the “H&E staining score” value in series [3] (setting [7]) was 1.11±0.33. Further, the “H&E staining score” value in series [3] (setting [8]) came to 2.00±0.39. Besides, the “H&E staining scores (result in words)” value in series [3] (FIG. 3 legend, regimen not stated) is listed as “reduced the H&E staining scores”. In series [4] (100 mg/kg po qd, 14 days (d7-d20, Group 3), end of the study (day 21), scoring 0 to 5), this compound yielded a clinical score of 2.00±0.58. Moreover, the “clinical score of EAE (result in words)” value in series [4] (100 mg/kg po qd, either of the three regimens (20, 14, 7 days)) was “significantly reducing the clinical score of EAE; also recorded: reduced the clinical scores”.
